Target: T1, His6-NALP1 NBS mutant (G339E, K340A) (Homo sapiens, UniProt Q9C000, G339E/K340A)
T1 construct: made in house; host or cells: COS-7 cells, transient transfection, Ni-NTA purification
T1 sequence (Q9C000 1-1473 G339E/K340A): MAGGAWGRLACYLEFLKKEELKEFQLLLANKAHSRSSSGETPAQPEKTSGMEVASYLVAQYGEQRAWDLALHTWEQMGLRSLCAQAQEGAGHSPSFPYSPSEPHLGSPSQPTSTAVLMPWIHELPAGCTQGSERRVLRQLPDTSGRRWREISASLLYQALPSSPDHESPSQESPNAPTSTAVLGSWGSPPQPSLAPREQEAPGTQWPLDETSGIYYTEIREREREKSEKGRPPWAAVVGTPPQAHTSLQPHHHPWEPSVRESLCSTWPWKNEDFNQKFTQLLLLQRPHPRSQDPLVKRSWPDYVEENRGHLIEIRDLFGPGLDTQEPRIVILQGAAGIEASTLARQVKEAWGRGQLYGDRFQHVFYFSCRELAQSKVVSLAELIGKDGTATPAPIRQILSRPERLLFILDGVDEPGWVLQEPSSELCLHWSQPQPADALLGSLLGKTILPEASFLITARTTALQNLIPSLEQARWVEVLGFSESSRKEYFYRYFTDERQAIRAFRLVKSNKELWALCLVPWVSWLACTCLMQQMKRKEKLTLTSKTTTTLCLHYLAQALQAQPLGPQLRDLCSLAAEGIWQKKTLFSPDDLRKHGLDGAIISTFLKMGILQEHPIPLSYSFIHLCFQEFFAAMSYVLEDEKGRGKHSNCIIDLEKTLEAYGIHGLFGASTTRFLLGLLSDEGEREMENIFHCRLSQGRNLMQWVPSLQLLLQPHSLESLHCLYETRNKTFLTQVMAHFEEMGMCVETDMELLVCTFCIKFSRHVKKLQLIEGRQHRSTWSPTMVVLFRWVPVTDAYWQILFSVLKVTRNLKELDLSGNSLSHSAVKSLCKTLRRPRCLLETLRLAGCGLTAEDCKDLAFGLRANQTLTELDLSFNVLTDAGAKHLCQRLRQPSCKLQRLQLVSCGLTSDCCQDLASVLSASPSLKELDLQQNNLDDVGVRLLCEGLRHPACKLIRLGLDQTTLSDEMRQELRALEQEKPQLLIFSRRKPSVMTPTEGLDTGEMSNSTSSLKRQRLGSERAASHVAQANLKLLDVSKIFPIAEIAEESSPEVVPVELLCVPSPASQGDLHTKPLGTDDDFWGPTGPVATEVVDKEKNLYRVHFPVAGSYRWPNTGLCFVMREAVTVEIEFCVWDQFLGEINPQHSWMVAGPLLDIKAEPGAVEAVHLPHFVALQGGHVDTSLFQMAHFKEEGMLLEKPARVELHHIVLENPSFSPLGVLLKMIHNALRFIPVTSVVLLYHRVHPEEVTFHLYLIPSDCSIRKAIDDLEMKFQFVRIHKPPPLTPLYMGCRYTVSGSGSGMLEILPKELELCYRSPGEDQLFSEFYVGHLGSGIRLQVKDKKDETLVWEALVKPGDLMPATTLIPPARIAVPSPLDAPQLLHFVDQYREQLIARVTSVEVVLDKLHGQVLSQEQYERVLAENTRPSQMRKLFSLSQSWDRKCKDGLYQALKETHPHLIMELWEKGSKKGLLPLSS
Test: Ni flashplate dATPα35S binding assay, NBS mutant His6-NALP1
Settings: 8 nM dATPα35S displaced by non-radiolabeled dATP
Protocol: Production of purified NALP-Flashplate binding assay. NALP1 protein for in vitro binding assays was purified from transiently transfected cells. COS-7 cells were plated in DMEM, 10% fetal calf serum with amino acid supplements and antibiotics and allowed to grow to approximately 50% confluency. Large-scale preparations were performed in Cell Factories (NUNC) with approximately 600 μg plasmid DNA. Polyfect transfection reagent (Qiagen) was used as described by the manufacturer. After 24 hours, cells were collected by trypsinization, washed with fresh medium and then with PBS. Cells were lysed by resuspension in 10× cell volume of lysis buffer (140 mM NaCl, 0.1% Triton-X100, 0.1 mM DTT, 20 mM HEPES at pH 7.4 and protease inhibitor cocktail (Roche Diagnostics BmbH)). Lysates were centrifuged at approximately 7400×g for 30 minutes and supernatants were supplemented with glycerol to a final concentration of 10% and stored at −70° C. until purification. Protein concentrations were measured and samples normalized. Extracts were mixed with 1 ml Ni-NTA agarose equilibrated with the same buffer for 1 hour at 4° C. in the tube. Disposable columns were filled with the resin and flow-through collected. […] Reactions were stopped by aspirating solutions and washed once with Buffer B. Plates were counted in a Top Count scintillation counter (Packard).

## Nc1ncnc2c1ncn2[C@H]1C[C@H](O)[C@@H](COP(=O)(O)OP(=O)(O)OP(=O)(O)O)O1 [dATP]
  specific binding of dATP to NBS mutant NALP1: failed to achieve significant binding
